The results in this text go back to patent US20250163488A1, “CONJUGATION METHOD INVOLVING A TRANSGLUTAMINASE AT THE FC REGION COMPRISING A TRIMMED N-GLYCAN” (ADC THERAPEUTICS SA, priority 2022, published 2025).

This test deals with T1, MTGase (Streptomyces mobaraensis, UniProt P81453).
T1 sequence (P81453 77-407): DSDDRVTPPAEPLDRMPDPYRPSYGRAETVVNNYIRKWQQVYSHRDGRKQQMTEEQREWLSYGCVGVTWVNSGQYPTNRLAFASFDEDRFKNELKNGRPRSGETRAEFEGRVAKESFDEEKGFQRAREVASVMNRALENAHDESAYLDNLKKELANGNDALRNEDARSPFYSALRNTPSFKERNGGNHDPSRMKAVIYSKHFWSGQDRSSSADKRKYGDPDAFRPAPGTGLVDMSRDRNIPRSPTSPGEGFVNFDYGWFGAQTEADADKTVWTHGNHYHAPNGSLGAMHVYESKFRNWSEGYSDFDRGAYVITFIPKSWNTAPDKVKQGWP
The test can be described thus: MTGase mediated conjugation of linkers to deglycosylated/trimmed antibody X, efficiency by LC-MS. It is filed as biochemical. Also on record: Efficiency of MTGase mediated conjugation, PNGase F Process: tested at 200 eq. The following applies: linker 200 eq., 37° C., 18 h; for Efficiency of MTGase mediated conjugation, EndoS Process: antibody X glycan trimmed with EndoS; for Efficiency of MTGase mediated conjugation, PNGase F Process: antibody X deglycosylated with PNGase F. As to the method: Antibody X (2.5 mg) was degylcosylated using PNGase F (379 KU) at an antibody concentration of 1.33 mg/mL, the digest was incubated at 37° C. for 18 h. Deglycosylated antibody X was purified by protein A chromatography followed by buffer exchange into PBS and concentration by UF/DF.
Antibody X (2.5 mg) glycans were trimmed using EndoS (12.5 μg) at an antibody concentration of 1.0 mg/mL, the digest was incubated at 37° C. for 18 h. Trimmed antibody X was purified by protein A chromatography followed by buffer exchange into PBS and concentration by UF/DF.
Solutions of linkers 1-4, 7, 8 & 11 (Table 1) were prepared in PBS. Degylcosylated/trimmed antibody X samples (0.1 mg, 2 mg/mL) were next functionalized with linkers 1-4, 7, 8 & 11 (200 eq.) via MTGase mediated conjugation using 6.7 U of enzyme per mg of antibody. The resulting reactions were incubated at 37° C. for 18 h. Functionalized antibody X samples were purified by protein A chromatography followed by buffer exchange into PBS and concentration via UF/DF. The efficiency of conjugation for the purified samples was determined by LC-MS (Table 2).

As for `[N-]=[N+]=NCCOCCOCCOCCNC(=O)c1ccc(C(=O)NN)cc1` [Compound 7, 4-hydrazidobenzamide-PEG(4u)-azide], the “Efficiency of MTGase mediated conjugation, EndoS Process” value (shortened to “Efficiency … EndoS Process”) stood at 100%.

On to `[N-]=[N+]=NCCOCCOCCOCCNC(=O)c1ccc(NN)cc1` [Compound 8, 4-hydrazinobenzamide-PEG(4u)-azide], for which the “Efficiency of MTGase mediated conjugation, PNGase F Process” value (“Efficiency … PNGase F Process” below) came to 91% and the “Efficiency … EndoS Process” value is 84%. Turning to `[N-]=[N+]=NCCOCCOCCOCCNC(=O)c1ccc(CC(=O)NN)cc1` [Compound 11, 4-hydrazidomethylbenzamide-PEG(4u)-azide], the “Efficiency … EndoS Process” value was 100%. On to amine-PEG(3u)-azide [Compound 1], for which the “Efficiency … PNGase F Process” value is given as 100% and the “Efficiency … EndoS Process” value is given as 100%. As for aminooxy-PEG(3u)-azide [Compound 2], the “Efficiency … PNGase F Process” value was 95% and the “Efficiency … EndoS Process” value worked out at 84%. hydrazido-PEG(4u)-azide [Compound 3]: the “Efficiency … PNGase F Process” value is 98% and the “Efficiency … EndoS Process” value was 97%. For hydrazino-PEG(4u)-azide [Compound 4], the “Efficiency … PNGase F Process” value is on record as 89% and the “Efficiency … EndoS Process” value stood at 86%.
